Measured values: ChEMBL document CHEMBL3217734, “Sulfonyl-hydrazones of cyclic imides derivatives as potent inhibitors of the Mycobacterium tuberculosis protein tyrosine phosphatase B (PtpB)” (Medchemcomm, 2011)
Calls of active or inactive are those of the source. No cut-off for these calls is given here.

What was measured:
[1] = tested on: Mycobacterium tuberculosis; experiment: Inhibition of N-terminal hexahistidine-tagged recombinant Mycobacterium tuberculosis PtpB expressed in Escherichia coli BL21(DE3) using p-nitrophenylphosphate as substrate at 25 uM measured for 10 mins by ELISA plate spectrophotometric analysis relative to control
[2] = Competitive inhibition of N-terminal hexahistidine-tagged recombinant Mycobacterium tuberculosis PtpB expressed in Escherichia coli BL21(DE3) using p-nitrophenylphosphate as substrate measured for 10 mins by Lineweaver-Burk plot analysis
[3] = biological target: T1, Tyrosine-protein phosphatase non-receptor type 1 (Homo sapiens, UniProt P18031); experiment: Inhibition of PTP1B (unknown origin) using p-nitrophenylphosphate as substrate measured for 10 mins by ELISA plate spectrophotometric analysis
T1 sequence (P18031 whole entry): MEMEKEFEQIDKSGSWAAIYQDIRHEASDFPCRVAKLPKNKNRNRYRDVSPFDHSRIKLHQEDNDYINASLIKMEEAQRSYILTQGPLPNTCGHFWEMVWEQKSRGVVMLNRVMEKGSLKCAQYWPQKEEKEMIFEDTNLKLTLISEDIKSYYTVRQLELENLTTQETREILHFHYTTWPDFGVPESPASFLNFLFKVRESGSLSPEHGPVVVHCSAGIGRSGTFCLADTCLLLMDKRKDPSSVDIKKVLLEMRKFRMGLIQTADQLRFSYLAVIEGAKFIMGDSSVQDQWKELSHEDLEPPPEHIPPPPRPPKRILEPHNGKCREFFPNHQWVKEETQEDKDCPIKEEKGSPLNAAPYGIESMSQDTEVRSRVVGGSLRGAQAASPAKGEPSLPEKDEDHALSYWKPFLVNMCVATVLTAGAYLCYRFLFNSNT

[4] = Inhibition of N-terminal hexahistidine-tagged recombinant Mycobacterium tuberculosis PtpB expressed in Escherichia coli BL21(DE3) using p-nitrophenylphosphate as substrate measured for 10 mins by ELISA plate spectrophotometric analysis

SMILES | inhibition [1] | Ki [2] | IC50 [3] | IC50 [4]
O=C1C=CC(=O)N1c1ccccc1 | 27% |  |  | 
O=C1C2C3C=CC(O3)C2C(=O)N1c1ccc(S(=O)(=O)N2CCCC2)cc1 (stereo not drawn) | inactive |  |  | 
CC12C=CC(O1)C1C(=O)N(c3ccc(S(=O)(=O)N/N=C/c4ccc(Cl)cc4)cc3)C(=O)C12 (stereo not drawn) | 59% | 2.5 µM | 41 µM | 21 µM
CC12C=CC(O1)C1C(=O)N(c3ccc(S(=O)(=O)N4CCCC4)cc3)C(=O)C12 (stereo not drawn) | inactive |  |  | 
O=C1C2C3C=CC(O3)C2C(=O)N1c1ccc(S(=O)(=O)N/N=C/c2ccc([N+](=O)[O-])cc2)cc1 (stereo not drawn) | 57% | 15 µM | 245 µM | 41 µM
CC12C=CC(O1)C1C(=O)N(c3ccc(S(=O)(=O)N/N=C/c4ccc(Cl)c(Cl)c4)cc3)C(=O)C12 (stereo not drawn) | 34% |  |  | 
Cc1ccc(/C=N/NS(=O)(=O)c2ccc(N3C(=O)C4C5C=CC(C)(O5)C4C3=O)cc2)cc1 (stereo not drawn) | 26% |  |  | 
CC12C=CC(O1)[C@@H]1C(=O)N(c3ccc(S(=O)(=O)N/N=C/c4ccc(Br)cc4)cc3)C(=O)[C@@H]12 (stereo partly drawn) | 59% | 9 µM | 88 µM | 39 µM
O=C1c2cccc3cccc(c23)C(=O)N1Cc1ccc(S(=O)(=O)N2CCOCC2)cc1 | inactive |  |  | 
CC12C=CC(O1)C1C(=O)N(c3ccc(S(=O)(=O)N/N=C/c4ccc([N+](=O)[O-])cc4)cc3)C(=O)C12 (stereo not drawn) | 32% |  |  | 
O=C1C=CC(=O)N1c1ccc(S(=O)(=O)Cl)cc1 | 14% |  |  | 
O=C1c2cccc3c(Cl)ccc(c23)C(=O)N1Cc1ccc(S(=O)(=O)N2CCOCC2)cc1 | inactive |  |  | 
CC12C=CC(O1)C1C(=O)N(c3ccc(S(=O)(=O)N/N=C/c4ccccc4)cc3)C(=O)C12 (stereo not drawn) | 59% | 7 µM | 7 µM | 18 µM
O=C1c2cccc3cccc(c23)C(=O)N1Cc1ccc(S(=O)(=O)N2CCCC2)cc1 | inactive |  |  | 
CC12C=CC(O1)C1C(=O)N(c3ccc(S(=O)(=O)N4CCOCC4)cc3)C(=O)C12 (stereo not drawn) | inactive |  |  | 
COc1ccc(/C=N/NS(=O)(=O)c2ccc(N3C(=O)C4C5C=CC(C)(O5)C4C3=O)cc2)cc1 (stereo not drawn) | inactive |  |  | 
